The nature of test [1]: Hypolipidaemic activity in Sprague-Dawley rats fed a 1.5% cholesterol-enriched diet for a week. It is filed as in vivo. The following applies: for Blood Total Cholesterol, Treating, Mean ± SE / Blood Total Cholesterol, % Change: 1 mg/kg/day, rats fed […] cholesterol-enriched diet for a week; for Blood Total Cholesterol, Treating, Mean ± SE: n = 9, * p ≤ 0.01 (Dunnett's test); for Blood Total Cholesterol, % Change: treating vs control. How it is done: Moreover, the compounds of the invention are useful as antidyslipidaemic agents, indeed they show a high activity in lowering total serum cholesterol and triglycerides. […] Table II exemplifies the results obtained by testing the hypolipidaemic activity of a representative group of compounds of the invention administered at the dose of 1 mg/kg/day to Sprague-Dawley rats fed 1.5% cholesterol-enriched diet for a week.
Hypocholesterolaemic activity of FCE compounds given at
1 mg/kg/day to rats fed 1.5% cholesterol-enriched diet

Test [2] concerns the target T1, acyl CoA:cholesterol acyltransferase (ACAT-EC 2.3.1.26) (Oryctolagus cuniculus, UniProt A0A5F9CPP4).
T1 construct: microsomal preparations from atherosclerotic rabbit thoracic aorta; from tissue; host or cells: microsomes of atherosclerotic rabbit thoracic aorta
T1 sequence (A0A5F9CPP4 1-555): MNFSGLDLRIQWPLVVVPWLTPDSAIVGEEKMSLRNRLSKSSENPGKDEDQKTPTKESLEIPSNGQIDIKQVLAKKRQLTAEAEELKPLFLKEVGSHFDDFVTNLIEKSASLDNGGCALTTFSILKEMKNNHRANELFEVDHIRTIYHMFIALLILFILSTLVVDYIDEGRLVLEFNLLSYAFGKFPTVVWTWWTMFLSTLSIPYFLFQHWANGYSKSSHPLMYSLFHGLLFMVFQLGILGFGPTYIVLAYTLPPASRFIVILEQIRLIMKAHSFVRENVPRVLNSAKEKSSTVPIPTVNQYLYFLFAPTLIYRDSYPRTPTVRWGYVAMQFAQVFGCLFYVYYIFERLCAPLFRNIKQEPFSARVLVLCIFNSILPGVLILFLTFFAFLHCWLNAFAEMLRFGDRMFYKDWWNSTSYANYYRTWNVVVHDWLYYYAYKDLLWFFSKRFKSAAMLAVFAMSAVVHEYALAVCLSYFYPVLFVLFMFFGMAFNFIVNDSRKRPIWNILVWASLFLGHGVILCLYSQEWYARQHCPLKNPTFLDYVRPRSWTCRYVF
The test can be described thus: Inhibition of ACAT activity in microsomal preparations from atherosclerotic rabbit thoracic aorta. Type of test: biochemical. The following applies: microsomes from atherosclerotic rabbit thoracic aorta; read-out: IC50 values for the inhibition activity in microsomes from atherosclerotic rabbit thoracic aortae.

A short description of test [3]: Liver cholesterol accumulation in albino mice fed a 1.5% cholesterol-enriched diet for seven hours. Type of test: in vivo. The following applies: acute oral dose of 10 mg/kg.
Test [4] in a line: Hypolipidaemic effect in New Zealand White rabbits fed a 1% cholesterol-enriched diet for 30 days. The following applies: compound added to the diet; for ED50: Oryctolagus cuniculus, 720 h. Type of test: in vivo.
The nature of test [5]: Hypolipidaemic activity in Sprague-Dawley rats fed a 1.5% cholesterol-enriched diet for a week. Type of test: in vivo. The following applies: Rattus norvegicus, 168 h, 1.5% cholesterol-enriched chow for a week, compound added to the diet.
[6] abbreviates: liver, read-out: ED50 for the cholesterol lowering effect in liver.
Where [7] appears, read: plasma, read-out: ED50 for the cholesterol lowering effect in plasma.

Molecules are shown by their SMILES.

On to `CC(C)c1cccc(C(C)C)c1NC(=O)NCC1(c2ccccc2)O[C@H](C)[C@@H](C)O1` [FCE 27529, N-[2,6-bis(1-methylethyl)phenyl]-N'-[(4R,5R)-4,5-dimethyl-2-phenyldioxolan-2-yl]methylurea], for which, in test [1], the “Blood Total Cholesterol, Treating, Mean ± SE” value stood at 75 ± 4 mg/dL and the “Blood Total Cholesterol, % Change” value was -62%.

Consider `CC(C)c1cccc(C(C)C)c1NC(=O)NCC1(C2CCCCC2)OCC(C)(C)CO1` [FCE 27356, N-[2,6-bis(1-methylethyl)phenyl]-N'-(2-cyclohexyl-5,5-dimethyl-1,3-dioxan-2-yl)methylurea], for which, in test [2], the IC50 worked out at 6.5 nM.

`CC(C)c1cccc(C(C)C)c1NC(=O)NCC1(c2ccccc2)OC(C)C(C)O1` (stereo not drawn) [FCE 27050, N-[2,6-bis(1-methylethyl)phenyl]-N'-[(2RS,4RS,5RS)-4,5-dimethyl-2-phenyldioxolan-2-yl]methylurea]: the “accumulation of cholesterol in the liver” value is “prevented in a significative fashion the accumulation of cholesterol in the liver” in test [3] and “prevented the accumulation of cholesterol in the liver” in test [4]. Also, the ED50 in test [4] (setting [6]) was 0.16 mg/kg; in test [4] (setting [7]) it was 0.19 mg/kg; in test [5] (setting [6]), 0.51 mg/kg; in test [5] (setting [7]) it was 0.83 mg/kg. In addition, the hypolipidaemic effect result in test [4] is reported as “potent hypolipidaemic effect”; in test [1] (Sprague-Dawley rats, […] cholesterol-enriched chow for a week, compound added to the diet), “remarkable hypolipidaemic effect”. In addition, in test [1], the “Blood Total Cholesterol, Treating, Mean ± SE” value came out at 62 ± 5 mg/dL. For the same compound, the “Blood Total Cholesterol, % Change” value in test [1] is on record as -60%.

As for `CC(C)c1cccc(C(C)C)c1NC(=O)NCC1(C2CCCCC2)O[C@@H](C)[C@H](C)O1` [FCE 27480, N-[2,6-bis(1-methylethyl)phenyl]-N'-[(4S, 5S)-2-cyclohexyl-4,5-dimethyldioxolan-2-yl]methylurea], in test [1], the “Blood Total Cholesterol, Treating, Mean ± SE” value worked out at 85 ± 9 mg/dL and the “Blood Total Cholesterol, % Change” value is recorded as -46%.

Turning to `CCOC(CNC(=O)Nc1c(C(C)C)cccc1C(C)C)(OCC)c1ccccc1` [FCE 27020, N-[2,6-bis(1-methylethyl)phenyl]-N'-(2,2-diethoxy-2-phenyl) ethylurea], in test [2], the IC50 is 7.47 nM.

As to `CC(C)c1cccc(C(C)C)c1NC(=O)NCC1(c2ccc(N(C)C)cc2)OCC(C)(C)CO1` [FCE 27607, N-[2,6-bis(1-methylethyl)phenyl]-N'-[2-(4-dimethylaminophenyl)-5,5-dimethyl-1,3-dioxan-2-yl]methylurea], in test [1], the “Blood Total Cholesterol, Treating, Mean ± SE” value is 110 ± 8 mg/dL and the “Blood Total Cholesterol, % Change” value is on record as -48%.

On to `CC(C)c1cccc(C(C)C)c1NC(=O)NCC1(C2CCCCC2)SCCS1` [FCE 27612, N-[2,6-bis(1-methylethyl)phenyl]-N'-(2-cyclohexyl-1,3-dithiolan-2-yl)methylurea], for which, in test [2], the IC50 was found to be 9.5 nM. Moreover, in test [1], the “Blood Total Cholesterol, Treating, Mean ± SE” value stood at 59 ± 7 mg/dL and the “Blood Total Cholesterol, % Change” value is -72%.
